Results on eleven molecules are retold here after patent US10344026B2, “Compositions and methods of targeting mutant K-ras” (NANTBIO, INC., priority 2017, dated 2019).

What all share (type): cell-based
The subject of assay [1] is Ishikawa (K-Ras wild type cell line). Put plainly: Viability assay (CellTiterBlue, 72 hr) Ishikawa. To be noted: Homo sapiens, GI50, CellTiterBlue. As for the experimental part:
(§1) Viability assays were performed on exemplary compounds and Table 2 below lists exemplary results for selected compounds tested on K-Ras wild type cell lines (Ishikawa, U87-MG, HCC827, and A375) and various K-Ras mutant cell lines (Panc1-G12D; Panc10.05-G12D; HCT116-G31D). Results are expressed in μM and corresponding structures are shown in FIGS. 2A-2G and Examples 1-152, above.
(§2) Cells are counted and seeded at 1000 cells/36 ul medium/well into 384-well microplates. Cells are returned to 37° C. CO2 incubator for 18 hr. Drug is made as 200× in DMSO and diluted into medium to 10×. To each well is added 4 ul 10× drug, and plates are returned to the incubator. Final assay DMSO concentration is 0.5%. After 72 hr, 8 ul CellTiterBlue (Promega) is added to each well. After 3 hr, fluorescence (Ex550/Em590) is determined on the Victor Plate Reader (Perkin Elmer). Assay range is determined by DMSO control (100% viability) and 100 uM tamoxifen (0% viability). GI50 values are calculated using Graphpad Prism.
On the technique in general: Alamar Blue is a resazurin reagent that responds to reducing activity.

The test system of assay [2] is phospho-Akt in Panc1 (G12D). The assay is described as follows: In-Cell Western phospho-Akt, Panc1. To be noted: Homo sapiens, PANC-1, 1 h; Panc1, one hour treatment; read-out: In-Cell Western Panc1 (G12D) Akt (P). As for the experimental part:
(§3) In-cell phosphorylation assays for Erk and Akt were performed on several of the compounds and exemplary results are shown in Table 3 below using HCC827 and A375 cell lines for wild type K-Ras and Panc1 and Panc10.05 cell lines for G12D K-Ras mutants. Results are expressed in μM and corresponding structures are shown in FIGS. 2A-2G and Examples 1-152, above.
(§4) Cells are seeded in complete medium into black sided, clear-bottom 384-well microplates at 3000 cells/[…]/well. Plates are returned to 37° C. CO2 incubator for 18 hr. Drug is made as 200× in DMSO and diluted into medium to 10×. To each well is added 4 ul 10× test article or controls, and plates are returned to the incubator. Final assay DMSO concentration is 0.5%. After one hour, cells are fixed in formaldehyde, rinsed & permeabilized with triton X-100, and blocked with BSA/Goat serum blocking solution. Primary phospho-Akt and phospho-ERK antibodies are added and plates are incubated overnight at 4° C. Plates are rinsed with Tween-20 wash buffer and secondary antibody (Goat anti-rabbit, Thermofisher) is added. After 2 hours, plates are rinsed in Tween-20 wash buffer, and then PBS. Plates are imaged on the Celigo (Nexcelom) and cellular fluorescence is quantitated. Full inhibition of phospho-Akt is achieved with 1 uM BEZ235 (Sellekchem), while full inhibition of phospho-ERK is achieved with 1 uM MEK Inhibitor II Calbiochem). EC50 values are calculated using Graphpad Prism.

Assay [3] has as its system phospho-Akt in Panc10.05 (G12D). Put plainly: In-Cell Western phospho-Akt, Panc10.05. To be noted: Homo sapiens, Panc1005, 1 h; Panc10.05, one hour treatment; read-out: In-Cell Western Panc10.05 (G12D) Akt (P). As to the method:
as §3, §4

The test system of the next assay is Panc1-G12D. The assay is described as follows: Viability assay (CellTiterBlue, 72 hr) Panc1. To be noted: Homo sapiens, PANC-1, GI50, CellTiterBlue, read-out: 72 hr Cell Viability Panc1 (G12D). As for the experimental part: as §1, §2
Assay [4] concerns U87-MG (K-Ras wild type cell line). Put plainly: Viability assay (CellTiterBlue, 72 hr) U87-MG. To be noted: Homo sapiens, U-87 MG, GI50, CellTiterBlue, U87-MG K-Ras wild-type. As to the method:
as §1, §2

The next assay deals with Panc10.05-G12D. Put plainly: Viability assay (CellTiterBlue, 72 hr) Panc10.05. To be noted: Homo sapiens, Panc1005, GI50, CellTiterBlue, read-out: 72 hr Cell Viability Panc10.05 (G12D). As to the method: as §1, §2
A further assay deals with HCT116-G31D. The assay is described as follows: Viability assay (CellTiterBlue, 72 hr) HCT116. To be noted: Homo sapiens, HCT-116, GI50, CellTiterBlue, read-out: 72 hr Cell Viability HCT116 (G13D). As for the experimental part: as §1, §2
Assay [5] has as its system phospho-ERK in Panc10.05 (G12D). Put plainly: In-Cell Western phospho-ERK, Panc10.05. To be noted: Homo sapiens, Panc1005, 1 h; Panc10.05, one hour treatment; read-out: In-Cell Western Panc10.05 (G12D) Erk (P). As to the method:
as §3, §4

Assay [6] has as its system phospho-ERK in Panc1 (G12D). Put plainly: In-Cell Western phospho-ERK, Panc1. To be noted: Homo sapiens, PANC-1, 1 h; Panc1, one hour treatment; read-out: In-Cell Western Panc1 (G12D) Erk (P). As to the method:
as §3, §4

The test system of assay [7] is HCC827 (K-Ras wild type cell line). Put plainly: Viability assay (CellTiterBlue, 72 hr) HCC827. To be noted: Homo sapiens, GI50, CellTiterBlue. As to the method: as §1, §2

Each structure is given as a SMILES string. Like-named read-outs stand apart in the source and are kept apart here. Some results are limits rather than exact numbers.

Take `Cc1nc(C2CCN(C)CC2)sc1C(=O)Nc1nc(-c2ccc3c(c2)CCC(=O)N3)cs1` [Compound 16, 4-methyl-2-(1-methylpiperidin-4-yl)-N-(4-(2-oxo-1,2,3,4-tetrahydroquinolin-6-yl)thiazol-2-yl)thiazole-5-carboxamide]: the IC50 in assay [1] (Ishikawa K-Ras wild-type) was more than 25 µM; with Panc1-G12D (Panc1 K-Ras G12D) it was 3 µM; in assay [4], more than 25 µM; in the assay on Panc10.05-G12D (Panc10.05 K-Ras G12D) it was 11 µM; in the assay with HCT116-G31D (HCT116 K-Ras G13D), 9 µM. Besides, the EC50 in assay [2] and in [3] was more than 25 µM each time.
`Cc1nc(NC(=O)Nc2ccccc2)sc1C(=O)Nc1nc(-c2ccc3c(c2)CCC(=O)N3)cs1` [Compound 15]: the IC50 is 15 µM in assay [1] (Ishikawa K-Ras wild-type); more than 25 µM with Panc1-G12D (Panc1 K-Ras G12D); 15 µM in assay [4]; 1.3 µM with Panc10.05-G12D (Panc10.05 K-Ras G12D); more than 25 µM in the assay on HCT116-G31D (HCT116 K-Ras G13D). Also, the EC50 is more than 25 µM in assay [3], more than 25 µM in assay [5] and 2 µM in assay [6].
Take `Cc1nc(C2CCCCC2)sc1C(=O)Nc1nc(-c2ccc3c(c2)CCC(=O)N3)cs1` [Compound 146, 2-cyclohexyl-4-methyl-N-(4-(2-oxo-1,2,3,4-tetrahydroquinolin-6-yl)thiazol-2-yl)thiazole-5-carboxamide]: the IC50 is more than 25 µM in assay [1] (Ishikawa K-Ras wild-type), 13 µM in the assay on Panc1-G12D (Panc1 K-Ras G12D), 8 µM in the assay with Panc10.05-G12D (Panc10.05 K-Ras G12D) and more than 25 µM in the assay with HCT116-G31D (HCT116 K-Ras G13D). Further, the EC50 is more than 25 µM in [2], more than 25 µM in assay [3], 9 µM in assay [5] and 5 µM in assay [6].
Turning to `Cc1nc(C)c(C(=O)Nc2nc(-c3ccc4c(c3)CCC(=O)N4)c(Cl)s2)s1` [Compound 144, N-(5-chloro-4-(2-oxo-1,2,3,4-tetrahydroquinolin-6-yl)thiazol-2-yl)-2,4-dimethylthiazole-5-carboxamide], the IC50 in assay [1] (Ishikawa K-Ras wild-type) is more than 25 µM; in the assay with Panc1-G12D (Panc1 K-Ras G12D), 8 µM; in assay [4], 11 µM; in the assay with Panc10.05-G12D (Panc10.05 K-Ras G12D) it was 10 µM; with HCT116-G31D (HCT116 K-Ras G13D), more than 25 µM. Besides, the EC50 in assay [2] is 16 µM; in [3], more than 25 µM; in [5] it was 10 µM; in assay [6], 6 µM.
Regarding `Cc1cn(C)nc1C(=O)Nc1nc(-c2ccc3c(c2)CCC(=O)N3)cs1` [Compound 23, 1,4-dimethyl-N-(4-(2-oxo-1,2,3,4-tetrahydroquinolin-6-yl)thiazol-2-yl)-1H-pyrazole-3-carboxamide], the IC50 in [1] (Ishikawa K-Ras wild-type) was more than 25 µM; in [7] (HCC827 K-Ras wild-type), more than 25 µM; with Panc1-G12D (Panc1 K-Ras G12D), more than 25 µM; with Panc10.05-G12D (Panc10.05 K-Ras G12D), 2 µM; in the assay on HCT116-G31D (HCT116 K-Ras G13D), more than 25 µM. Further, the EC50 in assay [2], in assay [3], in assay [5] and in assay [6] was more than 25 µM in each case.
For the molecule `Cc1nc(C(=O)Nc2nc(-c3ccc4c(c3)CCC(=O)N4)cs2)c(C)o1` [Compound 9, 2,5-dimethyl-N-(4-(2-oxo-1,2,3,4-tetrahydroquinolin-6-yl)thiazol-2-yl)oxazole-4-carboxamide], the IC50 (in assay [1] (Ishikawa K-Ras wild-type); in [7] (HCC827 K-Ras wild-type); with Panc1-G12D (Panc1 K-Ras G12D); in the assay on Panc10.05-G12D (Panc10.05 K-Ras G12D); in the assay with HCT116-G31D (HCT116 K-Ras G13D)) was more than 25 µM throughout. For the same molecule, the EC50 in [2], in [3], in assay [5] and in assay [6] was more than 25 µM in each case.
As for `Cc1nc(NS(C)(=O)=O)sc1C(=O)Nc1nc(-c2ccc3c(c2)CCC(=O)N3)cs1` [Compound 13, 4-methyl-2-(methylsulfonamido)-N-(4-(2-oxo-1,2,3,4-tetrahydroquinolin-6-yl)thiazol-2-yl)thiazole-5-carboxamide], the IC50 in assay [1] (Ishikawa K-Ras wild-type) is more than 25 µM; with Panc1-G12D (Panc1 K-Ras G12D), more than 25 µM; in assay [4], more than 25 µM; with Panc10.05-G12D (Panc10.05 K-Ras G12D), more than 25 µM; in the assay on HCT116-G31D (HCT116 K-Ras G13D), 21 µM. The EC50 in assay [2] and in assay [3] was more than 25 µM in each case.
On to `Cc1ncccc1C(=O)Nc1nc(-c2ccc3c(c2)CCC(=O)N3)cs1` [Compound 17, 2-methyl-N-(4-(2-oxo-1,2,3,4-tetrahydroquinolin-6-yl)thiazol-2-yl)nicotinamide], for which the IC50 is more than 25 µM in assay [1] (Ishikawa K-Ras wild-type); more than 25 µM in assay [7] (HCC827 K-Ras wild-type); 7 µM with Panc1-G12D (Panc1 K-Ras G12D); 4 µM with Panc10.05-G12D (Panc10.05 K-Ras G12D); more than 25 µM in the assay with HCT116-G31D (HCT116 K-Ras G13D). Further, the EC50 is more than 25 µM in [2], 23 µM in assay [3], more than 25 µM in [5] and more than 25 µM in [6].
As to `CCc1nc(C)c(C(=O)Nc2nc(-c3ccc4c(c3)CCC(=O)N4Cc3ccncc3)cs2)o1` [Compound 65, 2-ethyl-4-methyl-N-(4-(2-oxo-1-(pyridin-4-ylmethyl)-1,2,3,4-tetrahydroquinolin-6-yl)thiazol-2-yl)oxazole-5-carboxamide], the IC50 was more than 25 µM in assay [1] (Ishikawa K-Ras wild-type); more than 25 µM with Panc1-G12D (Panc1 K-Ras G12D); more than 25 µM in assay [4]; 15 µM in the assay on Panc10.05-G12D (Panc10.05 K-Ras G12D); more than 25 µM in the assay on HCT116-G31D (HCT116 K-Ras G13D). The EC50 in assay [2], in assay [5] and in assay [6] was more than 25 µM throughout.
`Cc1ncc(C(=O)Nc2nc(-c3ccc4c(c3)CCC(=O)N4)cs2)c(C)n1` [Compound 148, 2,4-dimethyl-N-(4-(2-oxo-1,2,3,4-tetrahydroquinolin-6-yl)thiazol-2-yl)pyrimidine-5-carboxamide]: the IC50 in assay [1] (Ishikawa cells (K-Ras wild-type)) is 18 µM; in assay [7] (HCC827 cells (K-Ras wild-type)) it was 11 µM; in the assay on Panc1-G12D (Panc1 cells (K-Ras G12D)), 4 µM; in the assay with Panc10.05-G12D (Panc10.05 cells (K-Ras G12D)), 2 µM; with HCT116-G31D (HCT116 cells (K-Ras G13D)), more than 25 µM. In addition, the EC50 in assay [2], in [3], in [5] and in assay [6] was more than 25 µM each time.
With `CC(=O)Nc1nc(C)c(C(=O)Nc2nc(-c3ccc4c(c3)CCC(=O)N4)cs2)s1` [Compound 14, 2-acetamido-4-methyl-N-(4-(2-oxo-1,2,3,4-tetrahydroquinolin-6-yl)thiazol-2-yl)thiazole-5-carboxamide], the IC50 in [1] (Ishikawa K-Ras wild-type) is more than 25 µM; in the assay on Panc1-G12D (Panc1 K-Ras G12D), more than 25 µM; in assay [4] it was more than 25 µM; in the assay on Panc10.05-G12D (Panc10.05 K-Ras G12D) it was 6 µM; in the assay on HCT116-G31D (HCT116 K-Ras G13D) it was more than 25 µM. The EC50 in assay [2] is more than 25 µM; in assay [5] it was 26 µM; in assay [6], more than 25 µM.
